{
  "source": "ChEMBL document CHEMBL4251560",
  "about": "“The Novel 4-Phenyl-2-Phenoxyacetamide Thiazoles modulates the tumor hypoxia leading to the crackdown of neoangiogenesis and evoking the cell death” (Eur J Med Chem, 2018)",
  "key": {"Ehrlich [1]": {"system": "Ehrlich", "assay": "Antitumor activity against mouse EAC solid tumor implanted in Swiss albino mouse assessed as reduction in tumor mass at 25 mg/kg, ip administered every alternate day for 3 days", "format": "functional"}, "A549 [2]": {"system": "A549", "assay": "Cytotoxicity against human A549 cells assessed as reduction in cell viability after 48 hrs by MTT assay", "format": "functional, cell-based", "settings": "A549, 48 h"}, "Ehrlich [3]": {"system": "Ehrlich", "assay": "Antitumor activity against mouse EAC solid tumor implanted in Swiss albino mouse assessed as reduction in tumor growth at 25 mg/kg, ip administered every alternate day for 3 days by animal morphology analysis", "format": "functional, organism-based"}, "Ehrlich [4]": {"system": "Ehrlich", "assay": "In vivo induction of apoptosis in mouse EAC cells implanted in Swiss albino mouse assessed as EAC cell membrane blebbing at 25 to 50 mg/kg, ip administered every alternate day for 3 days by Geimsa staining-based microscopic analysis", "format": "functional, organism-based"}, "Chorioallantoic membrane": {"system": "Chorioallantoic membrane", "assay": "In vivo antiangiogenic activity in chicken chorioallantoic membrane assessed as inhibition of recombinant VEGF165-induced vessel formation after 3 days", "format": "functional, Gallus gallus"}, "Ehrlich [5]": {"system": "Ehrlich", "assay": "In vivo induction of apoptosis in mouse EAC cells implanted in Swiss albino mouse assessed as EAC cell shrinkage at 25 to 50 mg/kg, ip administered every alternate day for 3 days by Geimsa staining-based microscopic analysis", "format": "functional, organism-based"}, "MCF7 [6]": {"system": "MCF7", "assay": "Cytotoxicity against human MCF7 cells assessed as reduction in cell viability after 48 hrs by MTT assay", "format": "functional, cell-based", "settings": "MCF7, 48 h"}, "MCF7 [7]": {"system": "MCF7", "assay": "Cytotoxicity against human MCF7 cells assessed as reduction in cell viability after 48 hrs by trypan blue exclusion assay", "format": "functional, cell-based", "settings": "MCF7, 48 h"}, "Ehrlich [8]": {"system": "Ehrlich", "assay": "Antitumor activity against mouse EAC cells implanted in ip dosed Swiss albino mouse assessed as reduction in cell density administered every alternate day for 3 days", "format": "functional"}, "Cornea": {"system": "Cornea", "assay": "Antiangiogenic activity in cornea of alkali injured rat eye assessed as induction of restraining of vessel sprouting applied to centre of cornea for 40 secs post alkali injury", "format": "functional"}, "Mus musculus [9]": {"system": "Mus musculus", "assay": "Toxicity in Swiss albino mouse implanted with mouse EAC cells assessed as induction of adverse effect on liver at 25 to 50 mg/kg, ip administered every alternate day for 3 days", "format": "organism-based", "settings": "in vivo, 72 h"}, "Mus musculus [10]": {"system": "Mus musculus", "assay": "In vivo inhibition of HIF-1alpha expression in Swiss albino mouse EAC cells implanted with mouse EAC at 25 to 50 mg/kg, ip administered every alternate day for 3 days by immunoblot analysis", "format": "functional, organism-based"}, "Mus musculus [11]": {"system": "Mus musculus", "assay": "In vivo inhibition of VEGF secretion in Swiss albino mouse EAC cells implanted with mouse EAC at 25 to 50 mg/kg, ip administered every alternate day for 3 days by ELISA", "format": "functional, organism-based"}, "Ehrlich [12]": {"system": "Ehrlich", "assay": "Antitumor activity against mouse EAC cells implanted in Swiss albino mouse assessed as mouse survival at 25 to 50 mg/kg, ip administered every alternate day for 3 days", "format": "functional"}, "MDA-MB-468 [13]": {"system": "MDA-MB-468", "assay": "Cytotoxicity against human MDA-MB-468 cells assessed as reduction in cell viability after 48 hrs by trypan blue exclusion assay", "format": "functional, cell-based", "settings": "MDA-MB-468, 48 h"}, "MDA-MB-468 [14]": {"system": "MDA-MB-468", "assay": "Cytotoxicity against human MDA-MB-468 cells assessed as reduction in cell viability after 48 hrs by MTT assay", "format": "functional, cell-based", "settings": "MDA-MB-468, 48 h"}, "Ehrlich [15]": {"system": "Ehrlich", "assay": "In vivo antiangiogenic activity in mouse EAC implanted in Swiss albino mouse assessed as regression of tumor-induced angiogenesis in peritoneum at 25 mg/kg, ip administered every alternate day for 3 days", "format": "functional", "settings": "72 h"}, "Ehrlich [16]": {"system": "Ehrlich", "assay": "Antitumor activity against mouse EAC cells implanted in Swiss albino mouse assessed as decrease in tumor volume at 50 mg/kg, ip administered every alternate day for 3 days", "format": "functional", "settings": "72 h, read-out: TGI"}, "Ehrlich [17]": {"system": "Ehrlich", "assay": "Antitumor activity against mouse EAC cells implanted in Swiss albino mouse assessed as decrease in tumor volume at 25 mg/kg, ip administered every alternate day for 3 days", "format": "functional", "settings": "72 h, read-out: TGI"}, "Mus musculus [18]": {"system": "Mus musculus", "assay": "Up-regulation of p53 protein expression in Swiss albino mouse EAC cells implanted with mouse EAC at 25 to 50 mg/kg, ip administered every alternate day for 3 days by immunoblot analysis", "format": "functional, organism-based"}, "Ehrlich [19]": {"system": "Ehrlich", "assay": "Antitumor activity against mouse EAC cells implanted in ip dosed Swiss albino mouse assessed as decrease in tumor volume administered every alternate day for 3 days", "format": "functional, organism-based"}, "Mus musculus [20]": {"system": "Mus musculus", "assay": "Up-regulation of MDM2 protein expression in Swiss albino mouse EAC cells implanted with mouse EAC at 25 to 50 mg/kg, ip administered every alternate day for 3 days by immunoblot analysis", "format": "functional, organism-based"}, "A549 [21]": {"system": "A549", "assay": "Cytotoxicity against human A549 cells assessed as reduction in cell viability after 48 hrs by trypan blue exclusion assay", "format": "functional, cell-based", "settings": "A549, 48 h"}, "Mus musculus [22]": {"system": "Mus musculus", "assay": "In vivo induction of apoptosis in mouse EAC cells implanted in Swiss albino mouse assessed as DNA fragmentation at 25 to 50 mg/kg, ip administered every alternate day for 3 days by DNA fragmentation assay", "format": "functional, organism-based"}, "Ehrlich [23]": {"system": "Ehrlich", "assay": "Antitumor activity against mouse EAC solid tumor implanted in ip dosed Swiss albino mouse assessed as reduction in tumor volume administered every alternate day for 3 days", "format": "functional, organism-based"}, "Ehrlich [24]": {"system": "Ehrlich", "assay": "Cytotoxicity against mouse EAC cells assessed as reduction in cell viability after 48 hrs by MTT assay", "format": "functional, cell-based"}, "[25]": {"assay": "Cytotoxicity against mouse DLA cells assessed as reduction in cell viability after 48 hrs by trypan blue exclusion assay", "format": "functional, cell-based"}, "Mus musculus [26]": {"system": "Mus musculus", "assay": "Toxicity in Swiss albino mouse implanted with mouse EAC cells assessed as induction of adverse effect on spleen at 25 to 50 mg/kg, ip administered every alternate day for 3 days", "format": "organism-based", "settings": "in vivo, 72 h"}, "Ehrlich [27]": {"system": "Ehrlich", "assay": "In vivo antiangiogenic activity in mouse EAC implanted in Swiss albino mouse assessed as regression of tumor-induced angiogenesis in peritoneum at 5 mg/kg, ip administered every alternate day for 3 days", "format": "functional", "settings": "72 h"}, "Ehrlich [28]": {"system": "Ehrlich", "assay": "In vivo induction of apoptosis in mouse EAC cells implanted in Swiss albino mouse assessed as induction of EAC cell irregular shape at 25 to 50 mg/kg, ip administered every alternate day for 3 days by Geimsa staining-based microscopic analysis", "format": "functional, organism-based"}, "[29]": {"assay": "Cytotoxicity against mouse DLA cells assessed as reduction in cell viability after 48 hrs by MTT assay", "format": "functional, cell-based"}, "Ehrlich [30]": {"system": "Ehrlich", "assay": "Cytotoxicity against mouse EAC cells assessed as reduction in cell viability after 48 hrs by trypan blue exclusion assay", "format": "functional, cell-based"}, "Ehrlich [31]": {"system": "Ehrlich", "assay": "In vivo antiangiogenic activity in mouse EAC implanted in Swiss albino mouse administered ip assessed as regression of tumor-induced angiogenesis in peritoneum administered every alternate day for 3 days", "format": "functional, organism-based"}, "Ehrlich [32]": {"system": "Ehrlich", "assay": "Antitumor activity against mouse EAC cells implanted in ip dosed Swiss albino mouse assessed as reduction in ascite volume administered every alternate day for 3 days", "format": "functional"}},
  "note": "Calls of active or inactive are those of the source. The rule behind the calls is not given here.",
  "data": [
    {"molecule": "Cc1ccc(-c2csc(NC(=O)COc3ccc(F)cc3F)n2)cc1", "values": [
      {"measurement": "Activity", "setting": "Ehrlich [1]", "result": "<=10 g"},
      {"measurement": "IC50", "setting": "A549 [2]", "result": 13.9, "unit": "µM"},
      {"measurement": "TGI", "setting": "Ehrlich [3]", "result": "Active"},
      {"measurement": "Activity", "setting": "Ehrlich [4]", "result": "Active"},
      {"measurement": "inhibition (INH)", "setting": "Chorioallantoic membrane", "result": 80, "unit": "%"},
      {"measurement": "Activity", "setting": "Ehrlich [5]", "result": "Active"},
      {"measurement": "IC50", "setting": "MCF7 [6]", "result": 14.5, "unit": "µM"},
      {"measurement": "IC50", "setting": "MCF7 [7]", "result": 14, "unit": "µM"},
      {"measurement": "fold change (FC)", "setting": "Ehrlich [8]", "result": 6},
      {"measurement": "Activity", "setting": "Cornea", "result": 60, "unit": "%"},
      {"measurement": "Activity", "setting": "Mus musculus [9]", "result": "Non-Toxic"},
      {"measurement": "inhibition", "setting": "Mus musculus [10]", "result": "Active"},
      {"measurement": "inhibition", "setting": "Mus musculus [11]", "result": "Active"},
      {"measurement": "Survival", "setting": "Ehrlich [12]", "result": ">=23 - 25 day"},
      {"measurement": "IC50", "setting": "MDA-MB-468 [13]", "result": 10.2, "unit": "µM"},
      {"measurement": "IC50", "setting": "MDA-MB-468 [14]", "result": 10.5, "unit": "µM"},
      {"measurement": "inhibition in vivo at 25 mg/kg", "setting": "Ehrlich [15]", "result": 30, "unit": "%"},
      {"measurement": "inhibition in vivo at 50 mg/kg", "setting": "Ehrlich [16]", "result": 80.2, "unit": "%"},
      {"measurement": "inhibition in vivo at 25 mg/kg", "setting": "Ehrlich [17]", "result": 74.3, "unit": "%"},
      {"measurement": "Activity", "setting": "Mus musculus [18]", "result": "Active"},
      {"measurement": "Activity", "setting": "Ehrlich [19]", "result": "Dose-dependent effect"},
      {"measurement": "Activity", "setting": "Mus musculus [20]", "result": "Active"},
      {"measurement": "IC50", "setting": "A549 [21]", "result": 13.2, "unit": "µM"},
      {"measurement": "Activity", "setting": "Mus musculus [22]", "result": "Active"},
      {"measurement": "Activity", "setting": "Ehrlich [23]", "result": "Dose-dependent effect"},
      {"measurement": "IC50", "setting": "Ehrlich [24]", "result": 14.9, "unit": "µM"},
      {"measurement": "IC50", "setting": "[25]", "result": 13.9, "unit": "µM"},
      {"measurement": "Activity", "setting": "Mus musculus [26]", "result": "Non-Toxic"},
      {"measurement": "inhibition in vivo at 5 mg/kg", "setting": "Ehrlich [27]", "result": 10, "unit": "%"},
      {"measurement": "Activity", "setting": "Ehrlich [28]", "result": "Active"},
      {"measurement": "IC50", "setting": "[29]", "result": 13.4, "unit": "µM"},
      {"measurement": "IC50", "setting": "Ehrlich [30]", "result": 14, "unit": "µM"},
      {"measurement": "Activity", "setting": "Ehrlich [31]", "result": "Dose-dependent effect"},
      {"measurement": "Activity", "setting": "Ehrlich [32]", "result": "Dose-dependent effect"},
      {"measurement": "fold change (FC)", "setting": "Ehrlich [32]", "result": "3 - 4"}
    ]}
  ]
}
